From patent US20240415819A1, “MACROCYCLIC COMPOUNDS AS PROTEASOME SUBUNIT BETA TYPE-5 INHIBITORS” (Lead Discovery Center GmbH, priority 2021, published 2024)

Key:
[1] = system: A549 (human lung carcinoma cell line); assay: Glo assay of A549 cells (Table 3; ProteasomeGlo plating scheme); format: cell-based; conditions: Homo sapiens; A549 cells; read-out: PGLo A549
Procedure, shortened: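 Compound treatment lasts 105 minutes at 37° C. under 5% CO2. Suc-LLVY-Glo substrate premixed with detection reagent (60 min at room temperature) is then added directly to the cells, and luminescence after 10-15 min in the dark gives the IC50 in nM.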

[2] = target: T1, β5 subunit of the human constitutive proteasome (CPS) (Homo sapiens, UniProt P28074); assay: β5 inhibition assay, human constitutive proteasome (Suc-LLVY-AMC); format: biochemical; conditions: IC50 class, Suc-LLVY-AMC substrate
T1 construct: purchased Boston Biochem E-360
Procedure: The enzymatic activity of the β5 subunit of the human constitutive proteasome (CPS) is analyzed. In another assay, which differs from the assay of the human constitutive proteasome only in using the human immunoproteasome (IPS) the enzymatic activity of the β5 subunit of the human immunoproteasome (IPS) is analyzed. […] Inhibition is indicated as IC50 [nM] (“-”=not measured).

[3] = system: HT-29 cells; assay: CellTiter-Glo luminescent cell viability assay with HT-29 cells (72h incubation); format: cell-based, human; conditions: Homo sapiens, HT-29, HT29 cells, read-out: CTG HT29
Procedure, shortened: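 Viability read as CellTiter-Glo luminescence after 72 h compound exposure, with 10 μM staurosporine and DMSO as control wells. Seeding 400 cells per well, compound added 24 h post-plating; IC50 from curve fitting.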

IC50 [1] [µM] | IC50 [2] [µM] | IC50 [3] [µM] | SMILES
0.5 to 1 | 0.1 to 0.5 | 0.1 to 0.5 | CC(=O)N[C@H]1CC(=O)N2CCOC(CCOc3ccc(C)c(c3)CNC(=O)[C@H](CCc3ccccc3)NC1=O)C2 (stereo partly drawn) [Compound 258, N-((9S,12S)-5^4-methyl-8,11,14-trioxo-9-phenethyl-4-oxa-7,10-diaza-1(2,4)-morpholina-5(1,3)-benzenacyclotetradecaphane-12-yl)acetamide]
0.1 to 0.5 | < 0.1 | 0.1 to 0.5 | Cc1ccc2cc1CNC(=O)[C@H](CCc1ccccc1)NC(=O)[C@@H](Nc1nc3ccccc3[nH]1)CC(=O)N1CCCC(CCO2)C1 (stereo partly drawn) [Compound 45, (9S,12S)-12-((1H-benzo[d]imidazol-2-yl)amino)-5^4-methyl-9-phenethyl-4-oxa-7,10-diaza-1(3,1)-piperidina-5(1,3)-benzenacyclotetradecaphane-8,11,14-trione]
< 0.1 | < 0.1 | 0.5 to 1 | CC(=O)N[C@H]1CC(=O)N2CCCC(CCOc3ccc(C)c(c3)CNC(=O)C(c3cnn(CCCS(=O)(=O)O)c3)NC1=O)C2 (stereo partly drawn) [Compound 571, 3-(4-((12S)-12-acetamido-5^4-methyl-8,11,14-trioxo-4-oxa-7,10-diaza-1(3,1)-piperidina-5(1,3)-benzenacyclotetradecaphane-9-yl)-1H-pyrazol-1-yl)propane-1-sulfonic acid]
< 0.1 | < 0.1 | < 0.1 | Cc1ccc2cc1CNC(=O)[C@H](CCc1ccccc1)NC(=O)[C@@H](NC(=O)C(C)(C)C#N)CC(=O)N1CCCC(CCO2)C1 (stereo partly drawn) [Compound 294, 2-cyano-2-methyl-N-((9S,12S)-54-methyl-8,11,14-trioxo-9-phenethyl-4-oxa-7,10-diaza-1(3,1)-piperidina-5(1,3)-benzenacyclotetradecaphane-12-yl)propanamide]
< 0.1 | < 0.1 | < 0.1 | Cc1ccc2cc1CNC(=O)[C@H](CCc1ccccc1)NC(=O)[C@@H](NC(=O)CCc1ccc(-c3ccccc3)cc1)CC(=O)N1CCCC(CCO2)C1 (stereo partly drawn) [Compound 176, 3-([1,1′-biphenyl]-4-yl)-N-((9S,12S)-5^4-methyl-8,11,14-trioxo-9-phenethyl-4-oxa-7,10-diaza-1(3,1)-piperidina-5(1,3)-benzenacyclotetradecaphane-12-yl)propanamide]
0.1 to 0.5 | < 0.1 | < 0.1 | Cc1ccc2cc1CNC(=O)[C@H](CCc1ccccc1)NC(=O)[C@@H](NC(=O)C1(C)CCOCC1)CC(=O)N1CCCC(CCO2)C1 (stereo partly drawn) [Compound 288, 4-methyl-N-((9S,12S)-5^4-methyl-8,11,14-trioxo-9-phenethyl-4-oxa-7,10-diaza-1(3,1)-piperidina-5(1,3)-benzenacyclotetradecaphane-12-yl)tetrahydro-2H-pyran-4-carboxamide]
0.1 to 0.5 | < 0.1 | < 0.1 | CC(=O)N[C@H]1CCCC(=O)N2CCCC(CCOc3ccc(C)c(c3)CNC(=O)[C@H](CCc3ccccc3)NC1=O)C2 (stereo partly drawn) [Compound 213, N-((9S,12S)-5^4-methyl-8,11,16-trioxo-9-phenethyl-4-oxa-7,10-diaza-1(3,1)-piperidina-5(1,3)-benzenacyclohexadecaphane-12-yl)acetamide]
0.1 to 0.5 | < 0.1 | < 0.1 | Cc1ccc2cc1CNC(=O)[C@H](CCc1ccccc1)NC(=O)[C@@H](NC(=O)OCc1ccccc1)CCCC(=O)N1CCCC(CCO2)C1 (stereo partly drawn) [Compound 195, benzyl ((9S,12S)-5^4-methyl-8,11,16-trioxo-9-phenethyl-4-oxa-7,10-diaza-1(3,1)-piperidina-5(1,3)-benzenacyclohexadecaphane-12-yl)carbamate]
0.1 to 0.5 | < 0.1 | < 0.1 | CCC(CC)(CO)C(=O)N[C@H]1CC(=O)N2CCCC(CCOc3ccc(C)c(c3)CNC(=O)[C@H](CCc3ccccc3)NC1=O)C2 (stereo partly drawn) [Compound 285, 2-ethyl-2-(hydroxymethyl)-N-((9S,12S)-5^4-methyl-8,11,14-trioxo-9-phenethyl-4-oxa-7,10-diaza-1(3,1)-piperidina-5(1,3)-benzenacyclotetradecaphane-12-yl)butanamide]
> 5 | > 5 | 0.1 to 0.5 | Cc1ccc2cc1CNC(=O)C(c1cnn(C)c1)NC(=O)CCC(=O)N1CCCC(CCO2)C1 (stereo not shown) [Compound 116, 5^4-methyl-9-(1-methyl-1H-pyrazol-4-yl)-4-oxa-7,10-diaza-1(3,1)-piperidina-5(1,3)-benzenacyclotetradecaphane-8,11,14-trione]
< 0.1 | < 0.1 | < 0.1 | COc1ccc(CC(=O)N[C@H]2CC(=O)N3CCCC(CCOc4ccc(C)c(c4)CNC(=O)[C@H](CCc4ccccc4)NC2=O)C3)cc1OC (stereo partly drawn) [Compound 63, 2-(3,4-dimethoxyphenyl)-N-((9S,12S)-5^4-methyl-8,11,14-trioxo-9-phenethyl-4-oxa-7,10-diaza-1(3,1)-piperidina-5(1,3)-benzenacyclotetradecaphane-12-yl)acetamide]
1 to 5 | 1 to 5 | 0.1 to 0.5 | CC(=O)N[C@H]1CCCC(=O)N2CCC2(C)COc2ccc(C)c(c2)CNC(=O)[C@H](CCc2ccccc2)NC1=O (stereo partly drawn) [Compound 281, N-((8S,11S)-1^2,4^4-dimethyl-7,10,15-trioxo-8-phenethyl-3-oxa-6,9-diaza-1(2,1)-azetidina-4(1,3)-benzenacyclopentadecaphane-11-yl)acetamide]
1 to 5 | 0.5 to 1 | 1 to 5 | CC(=O)N[C@H]1CCCC(=O)N2CC3CC(Oc4ccc(C)c(c4)CNC(=O)[C@H](CCc4ccccc4)NC1=O)C3C2 (stereo partly drawn) [Compound 191, N-((11R,15S,7S,10S)-3^4-methyl-6,9,14-trioxo-7-phenethyl-2-oxa-13,5,8-triaza-1(7,3)-bicyclo[3.2.0]heptana-3(1,3)-benzenacyclotetradecaphane-10-yl)acetamide]
0.5 to 1 | < 0.1 | 0.1 to 0.5 | Cc1ccc2cc1CNC(=O)[C@H](CCc1ccccc1)NC(=O)CCCCC(=O)N1CCCC(CCO2)C1 (stereo partly drawn) [Compound 16, (9S)-5^4-methyl-9-phenethyl-4-oxa-7,10-diaza-1(3,1)-piperidina-5(1,3)-benzenacyclohexadecaphane-8,11,16-trione]
0.1 to 0.5 | < 0.1 | 0.1 to 0.5 | Cc1ccc2cc1CNC(=O)[C@H](CCc1ccccc1)NC(=O)[C@@H](Nc1ccccn1)CC(=O)N1CCCC(CCO2)C1 (stereo partly drawn) [Compound 36, (9S,12S)-5^4-methyl-9-phenethyl-12-(pyridin-2-ylamino)-4-oxa-7,10-diaza-1(3,1)-piperidina-5(1,3)-benzenacyclotetradecaphane-8,11,14-trione]
1 to 5 | < 0.1 | 0.1 to 0.5 | Cc1cc2cc(c1C)CNC(=O)[C@H](Cc1c[nH]c3ccccc13)NC(=O)CCC(=O)N1CCCC(CCO2)C1 (stereo partly drawn) [Compound 120, (9S)-9-((1H-indol-3-yl)methyl)-5^4,5^5-dimethyl-4-oxa-7,10-diaza-1(3,1)-piperidina-5(1,3)-benzenacyclotetradecaphane-8,11,14-trione]
< 0.1 | < 0.1 | < 0.1 | Cc1ccc2cc1CNC(=O)[C@H](CCc1ccccc1)NC(=O)[C@@H](NC(=O)CCc1ccc3[nH]ccc3c1)CC(=O)N1CCCC(CCO2)C1 (stereo partly drawn) [Compound 182, 3-(1H-indol-5-yl)-N-((9S,12S)-5^4-methyl-8,11,14-trioxo-9-phenethyl-4-oxa-7,10-diaza-1(3,1)-piperidina-5(1,3)-benzenacyclotetradecaphane-12-yl)propanamide]
< 0.1 |  | < 0.1 | CC(=O)N[C@H]1CC(=O)N2CCCC(CCOc3ccc(C)c(c3)CNC(=O)C(CCc3cnccn3)NC1=O)C2 (stereo partly drawn) [Compound 564, N-((12S)-5^4-methyl-8,11,14-trioxo-9-(2-(pyrazin-2-yl)ethyl)-4-oxa-7,10-diaza-1(3,1)-piperidina-5(1,3)-benzenacyclotetradecaphane-12-yl)acetamide]
< 0.1 | < 0.1 | < 0.1 | COc1ccccc1CC(=O)N[C@H]1CC(=O)N2CCCC(CCOc3ccc(C)c(c3)CNC(=O)[C@H](CCc3ccccc3)NC1=O)C2 (stereo partly drawn) [Compound 84, 2-(2-methoxyphenyl)-N-((9S,12S)-5^4-methyl-8,11,14-trioxo-9-phenethyl-4-oxa-7,10-diaza-1(3,1)-piperidina-5(1,3)-benzenacyclotetradecaphane-12-yl)acetamide]
0.1 to 0.5 | < 0.1 | < 0.1 | Cc1ccc2cc1CNC(=O)[C@H](CCc1ccccc1)NC(=O)[C@@H](NC(=O)C1CCN1)CC(=O)N1CCCC(CCO2)C1 (stereo partly drawn) [Compound 160, (2R)-N-((9S,12S)-5^4-methyl-8,11,14-trioxo-9-phenethyl-4-oxa-7,10-diaza-1(3,1)-piperidina-5(1,3)-benzenacyclotetradecaphane-12-yl)azetidine-2-carboxamide]
> 5 | 1 to 5 |  | Cc1ccc2cc1CNC(=O)[C@H](C)NC(=O)CCC(=O)N1CCCC(CCO2)C1 (stereo partly drawn) [Compound 78, (9S)-5^4,9-dimethyl-4-oxa-7,10-diaza-1(3,1)-piperidina-5(1,3)-benzenacyclotetradecaphane-8,11,14-trione]
